Assay results: US20140221964A1, “SYSTEMS AND METHODS FOR LOCAL DRUG DELIVERY TO KIDNEYS” (priority 2011, published 2014)

Test system: Spontaneously hypertensive rats
Assay: Blood pressure and heart rate by tail-cuff after chronic local drug delivery to the renal capsule via implanted minipumps
[1] = local delivery to renal capsule by minipump, tail-cuff, over time

Compound: Clc1cccc(Cl)c1N=C1NCCN1 [clonidine]
- dosage resulting in the blood-pressure effect, compared with oral dosage expected for a similar result (local delivery to renal capsule): significantly less than an oral dosage
- heart rate (side effect) (local delivery to renal capsule by minipump): not reduced
- diastolic blood pressure [1]: reduced
- mean blood pressure [1]: reduced
- systolic blood pressure [1]: reduced
